Results taken from patent publication US20040209929A1, “Fused heteroaryl carboxylic acids as PPAR agonists” (Agouron Pharmaceuticals, Inc., priority 2003, published 2004).

Target: T1, PPAR-γ (Homo sapiens, UniProt P37231)
T1 sequence (P37231 1-505): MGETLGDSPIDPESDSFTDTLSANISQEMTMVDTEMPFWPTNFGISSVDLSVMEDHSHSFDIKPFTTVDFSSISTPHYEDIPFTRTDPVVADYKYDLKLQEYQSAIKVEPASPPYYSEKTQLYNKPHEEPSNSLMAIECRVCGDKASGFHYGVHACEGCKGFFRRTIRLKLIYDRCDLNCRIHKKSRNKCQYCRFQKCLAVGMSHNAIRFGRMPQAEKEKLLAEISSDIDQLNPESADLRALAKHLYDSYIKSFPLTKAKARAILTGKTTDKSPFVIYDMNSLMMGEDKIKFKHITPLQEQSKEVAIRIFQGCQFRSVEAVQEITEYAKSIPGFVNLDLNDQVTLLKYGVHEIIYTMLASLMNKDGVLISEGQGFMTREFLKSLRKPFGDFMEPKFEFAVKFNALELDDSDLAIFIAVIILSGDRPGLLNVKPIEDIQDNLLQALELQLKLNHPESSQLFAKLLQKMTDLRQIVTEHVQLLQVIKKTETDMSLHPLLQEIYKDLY
Assay: Scintillation Proximity Assay (SPA), displacement of 3H labeled darglitazone from PPAR-γ
Format: binding
Settings: PPAR protein on polylysine beads, read-out: PPAR-γKi
Description: Scintillatian Proximity Assay (SPA) Assays
In the SPA assay, 3H labeled darglitazone (for PPAR-γ) or GW^2331 (for PPAR-α) in bound to the PPAR protein captured on SPA polylysine beads and generates radioactive count signal that can be detected by TopCounts (Packard). The PPAR-bound 3H labeled ligand can be displaced by an unlabeled compound. The Ki of the compound can be then determined by the extent of displacement at various compound concentrations.
SPA polylysine beads, which can be purchased from Amersham Bioscience.
3H labeled Darglitazone for PPAR-γ.
Buffer—PBS, 10% glycerol, 14 mM beta-mercaptoethanol.

| SMILES | Ki [µM] |
| --- | --- |
| Cc1oc(-c2ccccc2)nc1CCOc1cccc2c1cnn2CCC(=O)O [Example 1, 3-{4-[2-(5-methyl-2-phenyl-1,3-oxazol-4-yl)ethoxy]-1H-indazol-1-yl}propanoic acid] | 0.58 |
| Cc1oc(-c2ccccc2)nc1COc1ccc2cnn(CCCC(=O)O)c2c1 [Example 3, 4-{6-[(5-methyl-2-phenyl-1,3-oxazol-4-yl)methoxy]-1H-indazol-1-yl}butanoic acid] | > 100 |
| Cc1oc(-c2ccccc2)nc1COc1ccc2cnn(CC(=O)O)c2c1 [Example 4, {6-[(5-methyl-2-phenyl-1,3-oxazol-4-yl)methoxy]-1H-indazol-1-yl}acetic acid] | > 50 |
| O=C(O)CCn1ncc2ccc(OCc3nc(-c4ccccc4)oc3-c3ccccc3)cc21 [Example 6, 3-{6-[(2,5-diphenyl-1,3-oxazol-4-yl)methoxy]-1H-indazol-1-yl}propanoic acid] | 1.8 |
| O=C(O)Cn1ncc2ccc(OCc3nc(-c4ccccc4)oc3-c3ccccc3)cc21 [Example 7, {6-[(2,5-diphenyl-1,3-oxazol-4-yl)methoxy]-1H-indazol-1-yl}acetic acid] | 6.9 |
| O=C(O)CCCn1ncc2ccc(OCc3nc(-c4ccccc4)oc3-c3ccccc3)cc21 [Example 10, 4-{6-[(2,5-diphenyl-1,3-oxazol-4-yl)methoxy]-1H-indazol-1-yl}butanoic acid] | > 100 |
| O=C(O)CCCn1ncc2c(OCc3nc(-c4ccccc4)oc3-c3ccccc3)cccc21 [Example 11, 4-{4-[(2,5-diphenyl-1,3-oxazol-4-yl)methoxy]-1H-indazol-1-yl}butanoic acid] | > 100 |
| O=C(O)Cn1ncc2c(OCc3nc(-c4ccccc4)oc3-c3ccccc3)cccc21 [Example 12, {4-[(2,5-diphenyl-1,3-oxazol-4-yl)methoxy]-1H-indazol-1-yl)acetic acid] | 4 |
| Cc1oc(-c2ccccc2)nc1COc1ccc2cnn(CCC(=O)O)c2c1 [Example 13, 3-{6-[(5-methyl-2-phenyl-1,3-oxazol-4-yl)methoxy]-1H-indazol-1-yl}propanoic acid] | 41 |
| O=C(O)CCn1ncc2c(OCc3nc(-c4ccccc4)oc3-c3ccccc3)cccc21 [Example 14, 3-{4-[(2,5-diphenyl-1,3-oxazol-4-yl)methoxy]-1H-indazol-1-yl}propanoic acid] | 3.7 |
| Cc1oc(-c2ccccc2)nc1COc1cccc2c1cnn2CCCC(=O)O [Example 15, 4-{4-[(5-methyl-2-phenyl-1,3-oxazol-4-yl)methoxy]-1H-indazol-1-yl}butanoic acid] | 10 |
| Cc1oc(-c2ccccc2)nc1COc1cccc2c1cnn2CC(=O)O [Example 16, {4-[(5-methyl-2-phenyl-1,3-oxazol-4-yl)methoxy]-1H-indazol-1-yl}acetic acid] | > 100 |
| Cc1oc(-c2ccccc2)nc1COc1cccc2c1cnn2CCC(=O)O [Example 17, 3-{4-[(5-methyl-2-phenyl-1,3-oxazol-4-yl)methoxy]-1H-indazol-1-yl}propanoic acid] | 4 |
| Cc1oc(-c2ccccc2)nc1CCOc1cccc2c1cnn2CCCC(=O)O [Example 18] | > 50 |
| Cc1oc(-c2ccccc2)nc1CCOc1ccc2cnn(CC(=O)O)c2c1 [Example 20, {6-[2-(5-methyl-2-phenyl-1,3-oxazol-4-yl)ethoxy]-1H-indazol-1-yl}acetic acid] | > 50 |
| Cc1oc(-c2ccccc2)nc1CCOc1ccc2cnn(CCC(=O)O)c2c1 [Example 21, 3-{6-[2-(5-methyl-2-phenyl-1,3-oxazol-4-yl)ethoxy]-1H-indazol-1-yl}propanoic acid] | > 50 |
| Cc1oc(-c2ccccc2)nc1CCOc1ccc2cnn(CCCC(=O)O)c2c1 [Example 22, 4-{6-[2-(5-methyl-2-phenyl-1,3-oxazol-4-yl)ethoxy]-1H-indazol-1-yl}butanoic acid] | > 50 |

| SMILES | Ki [µM] |
| --- | --- |
| Cc1oc(-c2ccccc2)nc1CCCOc1cccc2c1cnn2CCCC(=O)O [Example 23, 4-{4-[3-(5-methyl-2-phenyl-1,3-oxazol-4-yl)propoxy]-1H-indazol-1-yl}butanoic acid] | > 50 |
| Cc1oc(-c2ccccc2)nc1CCCOc1cccc2c1cnn2CC(=O)O [Example 25, {4-[3-(5-methyl-2-phenyl-1,3-oxazol-4-yl)propoxy]-1H-indazol-1-yl}acetic acid] | > 50 |
| Cc1oc(-c2ccccc2)nc1CCCOc1cccc2c1cnn2CCC(=O)O [Example 27, 3-{4-[3-(5-methyl-2-phenyl-1,3-oxazol-4-yl)propoxy]-1H-indazol-1-yl}propanoic acid] | > 50 |
| Cc1oc(-c2ccccc2)nc1CCOc1ccnc2c1ccn2CC(=O)O [Example 29, {4-[2-(5-methyl-2-phenyl-1,3-oxazol-4-yl)ethoxy]-1H-pyrrolo[2,3-b]pyridin-1-yl}acetic acid] | > 50 |
| Cc1oc(-c2ccccc2)nc1CCCn1ncc2c(OC(C)(C)C(=O)O)cccc21 [Example 33, 2-methyl-2-({1-[3-(5-methyl-2-phenyl-1,3-oxazol-4-yl)propyl]-1H-indazol-4-yl}oxy)propanoic acid] | 7 |
| Cc1oc(-c2ccccc2)nc1CCOc1cccc2c1ncn2CCC(=O)O [Example 34, 3-{4-[2-(5-methyl-2-phenyl-1,3-oxazol-4-yl)ethoxy]-1H-benzimidazol-1-yl}propanoic acid] | > 50 |
| Cc1oc(-c2ccccc2)nc1CCOc1cccc2c1c(C(=O)C(F)(F)F)cn2CCC(=O)O [Example 44] | 19 |
| Cc1oc(-c2ccccc2)nc1CCOc1ccnc2c1ccn2CCC(=O)O [Example 45] | 9 |
| Cc1oc(-c2ccccc2)nc1CCNc1ccnc2c1ccn2CCC(=O)O [Example 46] | 0.58 |
| Cc1oc(-c2ccccc2)nc1CCn1ccc2c(OCC(=O)O)ccnc21 [Example 47] | > 50 |
| Cc1oc(-c2ccccc2)nc1CCOc1cccc2c1ccn2CC(=O)O [Example 48] | 30 |
| Cc1oc(-c2ccccc2)nc1CCOc1cccc2c1cnn2CC(=O)O [Example 49] | > 50 |
| Cc1oc(-c2ccccc2)nc1CCOc1cccc2c1c(Cl)cn2CCC(=O)O [Example 50] | 4.9 |
| Cc1oc(-c2ccccc2)nc1CCOc1cccc2c1ccn2CC(CCC(=O)O)C(=O)O (stereo not shown) [Example 51] | > 100 |
| Cc1oc(-c2ccccc2)nc1CCOc1ccnc2c(CCC(=O)O)cccc12 [Example 53] | 8.5 |
| Cc1oc(-c2ccccc2)nc1CCOc1cccc2c1ccn2CCCC(=O)O [Example 54] | 16 |
| Cc1oc(-c2ccccc2)nc1COc1cccc2c1ccn2CCCC(=O)O [Example 55] | > 100 |
